Results taken from patent US12319655B2, “RAF kinase inhibitors and methods of use thereof” (Deciphera Pharmaceuticals, LLC, priority 2021, dated 2025).
pIC50: −log10 of the molar value.

Tests used:
[1] = biological target: A-Raf kinase (SEQ. ID No: 1) (Homo sapiens (Human), UniProt P10398, Y301D/Y302D); assay: Biochemical Assay for A-Raf (1); details: Table J, assay version (1); read-out: ARAF (1) IC50
Procedure, shortened: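 A-Raf Y301D/Y302D at 5.55 nM phosphorylates 30.1 nM MEK with 1 mM ATP in pH 7.5 Tris buffer, 1% DMSO. Activity was read continuously as NADH oxidation at 340 nm in a pyruvate kinase/lactate dehydrogenase coupled system for 6 h at 30 °C. Rates from 4–5 h were converted to percent inhibition, and IC50 came from a four-parameter fit.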

[2] = biological target: C-Raf kinase (SEQ. ID NO: 3) (Homo sapiens (Human), UniProt P04049, Y340D/Y341D); assay: Biochemical Assay for C-Raf (1); details: Table J, assay version (1); read-out: CRAF (1) IC50
Procedure, shortened: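 Coupled pyruvate kinase/LDH assay tracking NADH oxidation at 340 nm, with 0.43 nM C-Raf, 30.1 nM MEK and 1 mM ATP in pH 7.5 Tris buffer (15 mM MgCl2, 1% DMSO final). Read continuously for 6 h at 30 °C, rate taken from the 4–5 h window. IC50 from four-parameter fit of percent inhibition.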

[3] = test system: A375 cells; assay: A375 Cell Proliferation Assay (1); type: cell-based; details: Homo sapiens, A-375
Procedure, shortened: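 Resazurin fluorescence (excitation 540 nm, emission 600 nm, after a further 5-6 h) gave IC50s from triplicate compound dilution series.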

Sequence of C-Raf kinase (SEQ. ID NO: 3) (P04049 307-648 Y340D/Y341D): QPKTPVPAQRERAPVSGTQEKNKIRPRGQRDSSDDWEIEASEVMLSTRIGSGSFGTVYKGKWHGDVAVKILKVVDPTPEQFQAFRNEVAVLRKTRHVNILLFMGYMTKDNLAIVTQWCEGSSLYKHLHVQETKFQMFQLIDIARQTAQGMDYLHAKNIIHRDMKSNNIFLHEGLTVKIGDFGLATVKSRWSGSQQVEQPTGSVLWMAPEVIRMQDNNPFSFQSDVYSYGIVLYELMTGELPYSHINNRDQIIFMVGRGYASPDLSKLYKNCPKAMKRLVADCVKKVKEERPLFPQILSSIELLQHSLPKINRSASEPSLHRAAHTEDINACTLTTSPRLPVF
Sequence of A-Raf kinase (SEQ. ID No: 1) (P10398 other isoform, or with tags, fused parts or gaps Y301D (already in the parent)/Y302D (already in the parent)): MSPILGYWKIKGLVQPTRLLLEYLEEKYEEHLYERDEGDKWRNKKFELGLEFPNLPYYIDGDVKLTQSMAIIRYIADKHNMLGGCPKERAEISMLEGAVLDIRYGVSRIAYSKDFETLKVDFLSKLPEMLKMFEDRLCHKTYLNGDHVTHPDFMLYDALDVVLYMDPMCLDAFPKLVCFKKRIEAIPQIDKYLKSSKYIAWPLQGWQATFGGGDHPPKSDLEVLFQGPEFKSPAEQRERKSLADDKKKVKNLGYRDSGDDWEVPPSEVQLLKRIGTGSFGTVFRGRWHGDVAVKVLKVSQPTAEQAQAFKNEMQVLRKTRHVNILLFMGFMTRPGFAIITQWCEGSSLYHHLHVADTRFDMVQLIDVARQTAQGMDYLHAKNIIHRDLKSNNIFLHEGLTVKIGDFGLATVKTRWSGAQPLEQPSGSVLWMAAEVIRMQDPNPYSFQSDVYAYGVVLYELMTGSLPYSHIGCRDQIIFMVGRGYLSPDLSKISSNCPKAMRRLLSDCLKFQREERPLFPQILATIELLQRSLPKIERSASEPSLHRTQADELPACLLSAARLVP

SMILES | pIC50 [1] | pIC50 [2] | pIC50 [3]
CC(=O)Nc1cc(-c2cc(-c3cc(NC(=O)c4ccnc(C(F)(F)F)c4)ccc3C)cn(C)c2=O)ccn1 [Example 21, N-(3-(2′-acetamido-1-methyl-2-oxo-1,2-dihydro-[3,4′-bipyridin]-5-yl)-4-methylphenyl)-2-(trifluoromethyl)isonicotinamide] | 5.00 to 6.00 | ≥ 7.00 | 5.00 to 6.00
CC(=O)Nc1cc(-c2cc(-c3cc(C(=O)Nc4ccnc(C(F)(F)F)c4)ccc3C)ccn2)ccn1 [Example 26] | 5.00 to 6.00 | ≥ 7.00 | 6.30 to 7.00
CC(=O)Nc1cc(-c2cccc(-c3cc(NC(=O)c4ccnc(C(F)(F)F)c4)ccc3C)c2)ccn1 [Example 28] | 6.00 to 6.30 | ≥ 7.00 | ≥ 7.00
CNC(=O)c1cc(-c2cc(-c3cc(C(=O)Nc4ccnc(C(F)(F)F)c4)ccc3C)ccn2)ccn1 [Example 31] | 5.00 to 6.00 | ≥ 7.00 | 5.00 to 6.00
Cc1ncc(NC(=O)c2cnnc(C3CC3)c2)cc1-c1nccc(-c2ccnc(NC(=O)C3CC3)c2)n1 [Example 294] | 5.00 to 6.00 | ≥ 7.00 | 5.00 to 6.00
COC(=O)Nc1cc(-c2cnnc(-c3cc(NC(=O)c4ccnc(C(C)(C)C#N)c4)cnc3C)c2)ccn1 [Example 306] | 5.00 to 6.00 | 6.30 to 7.00 | 5.00 to 6.00
CNC(=O)c1cc(-c2cnnc(-c3cc(NC(=O)c4ccnc(C(C)(C)F)c4)cnc3C)c2)ccn1 [Example 309] | 5.00 to 6.00 | 6.30 to 7.00 | 5.00 to 6.00
Cc1ncc(NC(=O)c2ccnc(C(C)(C)F)c2)cc1-c1cc(-c2ccnc(NC(=O)C3CC3)c2)cnn1 [Example 310] | 5.00 to 6.00 | ≥ 7.00 | 6.30 to 7.00
COC(=O)Nc1cc(-c2cnnc(-c3cc(NC(=O)c4cccc(C(C)(C)C#N)c4)ccc3C)c2)ccn1 [Example 311] | 5.00 to 6.00 | ≥ 7.00 | ≥ 7.00
CNC(=O)c1cc(-c2cnnc(-c3cc(NC(=O)c4ccnc(C(C)(C)C#N)c4)cnc3C)c2)ccn1 [Example 316] | 5.00 to 6.00 | 6.30 to 7.00 | 5.00 to 6.00
CNC(=O)c1cc(-c2cnnc(-c3cc(NC(=O)c4ccnc(C5CC5)c4)cnc3C)c2)ccn1 [Example 317] | 5.00 to 6.00 | 6.30 to 7.00 | 5.00 to 6.00
CNC(=O)c1cc(-c2cnnc(-c3cc(NC(=O)c4ccnc(C(F)(F)F)c4)cnc3C)c2)ccn1 [Example 318] | 5.00 to 6.00 | 6.30 to 7.00 | 5.00 to 6.00
COC(C)(C)c1cc(C(=O)Nc2ccc(C)c(-c3cc(-c4ccnc(NC(=O)C5CC5)c4)cnn3)c2)ccn1 [Example 319] | 5.00 to 6.00 | ≥ 7.00 | ≥ 7.00
CNC(=O)c1cc(-c2cnnc(-c3cc(NC(=O)c4ccc(Cl)c(OC)c4)cnc3C)c2)ccn1 [Example 322] | 5.00 to 6.00 | 5.00 to 6.00 | 5.00 to 6.00
CNC(=O)c1cc(-c2cnnc(-c3cc(NC(=O)c4ccnc(C(F)F)c4)cnc3C)c2)ccn1 [Example 330] | 5.00 to 6.00 | 6.30 to 7.00 | 5.00 to 6.00
CNC(=O)c1cc(-c2cnnc(-c3cc(NC(=O)CCC(C)(C)C#N)cnc3C)c2)ccn1 [Example 333] | 5.00 to 6.00 | 5.00 to 6.00 | 5.00 to 6.00
Cc1ccc(NC(=O)C2CN(C)CCO2)cc1-c1cccc(-c2cc(NC(=O)C3CC3)ncn2)c1 (stereo not drawn) [Example 346] | 5.00 to 6.00 | ≥ 7.00 | 5.00 to 6.00
CO[C@H]1CC[C@H](C(=O)Nc2cnc(C)c(-c3cccc(-c4cc(NC(=O)C5CC5)ncn4)c3)c2)CC1 [Example 347] | 5.00 to 6.00 | 6.30 to 7.00 | 5.00 to 6.00
CNC(=O)c1cc(-c2cc(-c3cc(NC(=O)CCC(C)(C)C#N)ccc3C)ccn2)ccn1 [Example 357] | 5.00 to 6.00 | ≥ 7.00 | 5.00 to 6.00
COC(=O)Nc1cc(-c2cnnc(-c3cc(NC(=O)CN4CCCC4)cnc3C)c2)ccn1 [Example 359] | 5.00 to 6.00 | 5.00 to 6.00 | 5.00 to 6.00
